How the values were obtained:
[1] = test system: full length SMN2 minigene mRNA (HEK293H cells stably transfected with SMN2-A minigene); assay: SMN2 minigene mRNA splicing RT-qPCR assay in cultured cells; type: cell-based; conditions: Homo sapiens, HEK293-H, 24 hours, 7-point concentration curve, 1.5-fold increase relative to vehicle, read-out: EC1.5x minigene (EC1.5x concentration for production of full length SMN2 minigene mRNA)
Description: The term “EC1.5x concentration for production of full length SMN2 minigene mRNA” (or “EC1.5x minigene”) is defined as that concentration of test compound that 1 s effective m increasing the amount of full length SMN2 minigene mRNA to a level 1.5-fold greater relative to that in vehicle-treated cells.
The reverse transcription-quantitative PCR-based (RT-qPCR) assay is used to quantify the level of the full length SMN2 minigene (referred to herein by the term “FL SMN2mini”) mRNA containing SMN2 exon 7 in a HEK293H cell line stably transfected with said minigene and treated with a test compound. Materials used and respective sources are listed below in Table 1.
The SMN2-A minigene construct was prepared as described in International Patent Application WO2009/151546A1 page 145 paragraph [00400] to page 147 paragraph [00412](incl. FIG. 1 and FIG. 3 therein).
HEK293H cells stably transfected with the SMN2-A minigene construct (10,000 cells/well) are seeded in 200 μL of cell culture medium (DMEM plus 10% FBS, with 200 μg/mL hygromycin) in 96-well flat-bottom plates and the plate is immediately swirled to ensure proper dispersal of cells and the formation of an even monolayer of cells. Cells are allowed to attach for 6 hours. Test compounds are serially diluted 3.16-fold in 100% DMSO to generate a 7-point concentration curve. A solution of test compound (1 μL, 200× in DMSO) is added to each cell-containing well and the plate is incubated for 24 hours in a cell culture incubator (37° C., 5% CO2, 100% relative humidity). 2 replicates are prepared for each test compound concentration. The cells are then lysed in the Cells-To-Ct lysis buffer and the lysate is stored at −80° C.
Full length SMN2-A minigene and GAPDH mRNA are quantified using the primers and probes referenced in Table 2. Primer SMN Forward A (SEQ ID NO.1) hybridizes to a nucleotide sequence in exon 7 (nucleotide 22 to nucleotide 40), primer SMN Reverse A (SEQ ID NO.2) hybridizes to a nucleotide sequence in the coding sequence of Firefly luciferase, SMN Probe A (SEQ ID NO.3) hybridizes to a nucleotide sequence in exon 7 (nucleotide 50 to nucleotide 54) and exon 8 (nucleotide 1 to nucleotide 21). The combination of these three oligonucleotides detects only SMN1 or SMN2 minigenes (RT-qPCR) and will not detect endogenous SMN1 or SMN2 genes.
The SMN forward and reverse primers are used at final concentrations of 0.4 μM. The SMN probe is used at a final concentration of 0.15 μM. The GAPDH primers are used at final concentrations of 0.2 μM and the probe at 0.15 μM.
The SMN2-minigene GAPDH mix (15 μL total volume) is prepared by combining 7.5 μL of 2×RT-PCR buffer, 0.4 μL of 25×RT-PCR enzyme mix, 0.75 μL of 20×GAPDH primer-probe mix, 4.0075 μL of water, 2 μL of 10-fold diluted cell lysate, 0.06 μL of 100 µM SMN forward primer, 0.06 μL of 100 μM SMN reverse primer, and 0.225 μL of 100 μM SMN probe.
PCR is carried out at the following temperatures for the indicated time: Step 1: 48° C. (15 min); Step 2: 95° C. (10 min); Step 3: 95° C. (15 sec); Step 4: 60° C. (1 min); then repeat Steps 3 and 4 for a total of 40 cycles.
Each reaction mixture contains both SMN2-A minigene and GAPDH primers/probe sets (multiplex design), allowing simultaneous measurement of the levels of two transcripts.
The increase in the abundance of the FL SMN2mini mRNA relative to that in cells treated with vehicle control is determined from real-time PCR data using a modified ΔΔCt method (as described in Livak and Schmittgen, Methods, 2001, 25:402-8). The amplification efficiency E is calculated from the slope of the amplification curve for FL SMN2mini and GAPDH individually. The abundance of FL SMN2mini and GAPDH mRNA are then calculated as (1+E)^−Ct, where Ct is the threshold value for each amplicon. The abundance of FL SMN2mini mRNA is normalized to GAPDH mRNA abundance. […]

[2] = test system: SMN protein in SMA patient fibroblast cells (GM03813); assay: SMN protein assay in cultured cells (SMN HTRF); type: cell-based; conditions: Homo sapiens, SMA Type 1 patient fibroblasts, 48 hours; for EC (1.5-fold): 7-point concentration curve, 1.5 times SMN protein vs vehicle, read-out: EC1.5x SMN protein (EC1.5x concentration for SMN protein expression); for maximal fold induction: fold increase relative to vehicle control, read-out: max. fold increase of SMN protein
Description: The term “EC1.5x concentration for SMN protein expression” (or “EC1.5x SMN protein”) is defined as that concentration of test compound that is effective in producing 1.5 times the amount of SMN protein in an SMA patient fibroblast cell compared to the amount produced from the vehicle control.
The SMN HTRF (homogeneous time resolved fluorescence) assay is used to quantify the level of SMN protein in SMA patient fibroblast cells treated with test compounds. Materials used and respective sources are listed below in Table 4.
Cells are thawed and cultured in DMEM-10% FBS for 72 hours. Cells are trypsinized, counted and re-suspended to a concentration of 25,000 cells/mL in DMEM-10% FBS. The cell suspensions are plated at 5,000 cells per well in a 96 well microtiter plate and incubated for 3 to […]. Test compounds are serially diluted 3.16-fold in 100% DMSO to generate a 7-point concentration curve. 1 μL of test compound solution is transferred to cell-containing wells and cells are incubated for 48 hours in a cell culture incubator (37° C., 5% CO2, […]). Triplicate samples are set up for each test compound concentration. After 48 hours, the supernatant is removed from the wells and 25 μL of the RIPA lysis buffer, containing protease inhibitors, is added to the wells and incubated with shaking at room temperature for 1 hour. 25 μL of the diluent is added and then 35 μL of the resulting lysate is transferred to a 384-well plate, where each well contains 5 μL of the antibody solution (1:100 dilution of anti-SMN d2 and anti-SMN kryptate in SMN reconstitution buffer). The plate is centrifuged for 1 minute to bring the solution to the bottom of the wells, then incubated overnight at room temperature. Fluorescence for each well of the plate at 665 nm and 620 nm is measured on an EnVision multilabel plate reader (Perkin-Elmer).
The normalized fluorescence signal is calculated for each sample, Blank and vehicle control well by dividing the signal at 665 nm by the signal at 620 nm. Normalizing the signal accounts for possible fluorescence quenching due to the matrix effect of the lysate. The ΔF value (a measurement of SMN protein abundance as a percent value) for each sample well is calculated by subtracting the normalized average fluorescence for the Blank control wells from the normalized fluorescence for each sample well, then dividing this difference by the normalized average fluorescence for the Blank control wells and multiplying the resulting value by 100. The ΔF value for each sample well represents the SMN protein abundance from test compound-treated samples. The ΔF value for each sample well is divided by the ΔF value for the vehicle control wells to calculate the fold increase in SMN protein abundance relative to the vehicle control. Table 5 provides EC1.5x concentrations for SMN protein expression that was obtained from the 7-point concentration data generated according to the above procedure for particular compounds of the present invention.
Table 6 provides the maximum fold increase of SMN protein that was obtained from the 7-point concentration data generated according to the above procedure for particular compounds of the present invention

Row | Compound | EC (1.5-fold) [1] [µM] | EC (1.5-fold) [2] [µM] | maximal fold induction [2]
1 | Cc1cn2nc(-c3cc(=O)n4cc(N5CCN(C)CC5)ccc4n3)ccc2n1 [Example 1, 2-(2-methylimidazo[1,2-b]pyridazin-6-yl)-7-(4-methylpiperazin-1-yl)pyrido[1,2-a]pyrimidin-4-one] | 0.0035 | 0.0108 | 1.84
2 | Cc1cn2nc(-c3cc(=O)n4cc(N5CCN6CCC[C@@H]6C5)ccc4n3)ccc2n1 [Example 2, 7-[(8aR)-3,4,6,7,8,8a-hexahydro-1H-pyrrolo[1,2-a]pyrazin-2-yl]-2-(2-methylimidazo[1,2-b]pyridazin-6-yl)pyrido[1,2-a]pyrimidin-4-one] | 0.0038 | 0.0198 | 1.76
3 | Cc1cn2nc(-c3cc(=O)n4cc(N5CCN6CCC[C@H]6C5)ccc4n3)cc(C)c2n1 [Example 3, 7-[(8aS)-3,4,6,7,8,8a-hexahydro-1H-pyrrolo[1,2-a]pyrazin-2-yl]-2-(2,8-dimethylimidazo[1,2-b]pyridazin-6-yl)pyrido[1,2-a]pyrimidin-4-one] | 0.0032 | 0.0256 | 1.81
4 | Cc1cn2nc(-c3cc(=O)n4cc(N5CCN6CCC[C@@H]6C5)ccc4n3)cc(C)c2n1 [Example 4, 7-[(8aR)-3,4,6,7,8,8a-hexahydro-1H-pyrrolo[1,2-a]pyrazin-2-yl]-2-(2,8-dimethylimidazo[1,2-b]pyridazin-6-yl)pyrido[1,2-a]pyrimidin-4-one] | 0.0018 | 0.0157 | 1.76
5 | Cc1cn2nc(-c3cc(=O)n4cc(N5CCN6CCC[C@@]6(C)C5)ccc4n3)cc(C)c2n1 [Example 5, 7-[(8aS)-8a-methyl-1,3,4,6,7,8-hexahydropyrrolo[1,2-a]pyrazin-2-yl]-2-(2,8-dimethylimidazo[1,2-b]pyridazin-6-yl)pyrido[1,2-a]pyrimidin-4-one] | 0.0006 | 0.0041 | 1.71
6 | Cc1cn2nc(-c3cc(=O)n4cc(N5CCN6CCC[C@]6(C)C5)ccc4n3)cc(C)c2n1 [Example 6, 7-[(8aR)-8a-methyl-1,3,4,6,7,8-hexahydropyrrolo[1,2-a]pyrazin-2-yl]-2-(2,8-dimethylimidazo[1,2-b]pyridazin-6-yl)pyrido[1,2-a]pyrimidin-4-one] | 0.0028 | 0.011 | 1.84
7 | Cc1cn2nc(-c3cc(=O)n4cc(N5C[C@@H](C)N[C@@H](C)C5)ccc4n3)cc(C)c2n1 [Example 7, 2-(2,8-dimethylimidazo[1,2-b]pyridazin-6-yl)-7-[(3S,5R)-3,5-dimethylpiperazin-1-yl]pyrido[1,2-a]pyrimidin-4-one] | 0.0037 | 0.0155 | 1.76
8 | Cc1cn2nc(-c3cc(=O)n4cc(N5CCN[C@@H](C)C5)ccc4n3)cc(C)c2n1 [Example 8, 2-(2,8-dimethylimidazo[1,2-b]pyridazin-6-yl)-7-[(3S)-3-methylpiperazin-1-yl]pyrido[1,2-a]pyrimidin-4-one] | 0.0003 | 0.0059 | 1.85
9 | Cc1cn2nc(-c3cc(=O)n4cc(N5CCN[C@H](C)C5)ccc4n3)cc(C)c2n1 [Example 9, 2-(2,8-dimethylimidazo[1,2-b]pyridazin-6-yl)-7-[(3R)-3-methylpiperazin-1-yl]pyrido[1,2-a]pyrimidin-4-one] | 0.0001 | 0.0025 | 1.92
10 | Cc1cn2nc(-c3cc(=O)n4cc(N5CCCNCC5)ccc4n3)cc(C)c2n1 [Example 10, 7-(1,4-diazepan-1-yl)-2-(2,8-dimethylimidazo[1,2-b]pyridazin-6-yl)pyrido[1,2-a]pyrimidin-4-one] | 0.0064 | 0.0228 | 1.95
11 | Cc1cn2nc(-c3cc(=O)n4cc(N5CCNC6(CC6)C5)ccc4n3)ccc2n1 [Example 19, 7-(4,7-diazaspiro[2.5]octan-7-yl)-2-(2-methylimidazo[1,2-b]pyridazin-6-yl)pyrido[1,2-a]pyrimidin-4-one] | – | 0.0298 | 1.83
12 | Cc1cn2nc(-c3cc(=O)n4cc(N5C[C@@H](C)N[C@@H](C)C5)cc(C)c4n3)cc(C)c2n1 [Example 26, 2-(2,8-dimethylimidazo[1,2-b]pyridazin-6-yl)-7-[(3R,5S)-3,5-dimethylpiperazin-1-yl]-9-methyl-pyrido[1,2-a]pyrimidin-4-one] | – | 1.23 | 1.52
13 | Cc1cn2nc(-c3cc(=O)n4cc(N5CCNC(C)(C)C5)cc(C)c4n3)cc(C)c2n1 [Example 27, 2-(2,8-dimethylimidazo[1,2-b]pyridazin-6-yl)-7-(3,3-dimethylpiperazin-1-yl)-9-methyl-pyrido[1,2-a]pyrimidin-4-one] | – | 0.127 | 1.57

Reference: US11827646B2, “Compounds for treating spinal muscular atrophy” (Hoffmann-La Roche Inc., priority 2014, dated 2023)
